{"source": "ChEMBL document CHEMBL1155799", "about": "(Bioorg Med Chem, 2008)", "key": {"[1]": {"target": "T1, D(4) dopamine receptor (Homo sapiens, UniProt P21917)", "T1 sequence (P21917 whole entry)": "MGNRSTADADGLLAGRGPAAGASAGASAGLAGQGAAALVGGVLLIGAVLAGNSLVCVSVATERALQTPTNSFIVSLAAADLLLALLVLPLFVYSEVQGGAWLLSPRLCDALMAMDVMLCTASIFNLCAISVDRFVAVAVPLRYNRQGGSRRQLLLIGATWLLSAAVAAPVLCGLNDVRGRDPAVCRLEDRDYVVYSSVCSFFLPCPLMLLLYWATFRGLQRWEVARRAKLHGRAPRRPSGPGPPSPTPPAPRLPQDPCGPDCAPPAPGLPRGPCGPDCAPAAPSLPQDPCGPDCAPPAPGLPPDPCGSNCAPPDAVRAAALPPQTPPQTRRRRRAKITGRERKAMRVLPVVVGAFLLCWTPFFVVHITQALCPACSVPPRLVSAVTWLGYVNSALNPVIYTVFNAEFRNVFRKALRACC", "description": "Binding affinity to human cloned dopamine D4 receptor"}, "[2]": {"target": "D(3) dopamine receptor (Homo sapiens, UniProt P35462)", "sequence (P35462 whole entry)": "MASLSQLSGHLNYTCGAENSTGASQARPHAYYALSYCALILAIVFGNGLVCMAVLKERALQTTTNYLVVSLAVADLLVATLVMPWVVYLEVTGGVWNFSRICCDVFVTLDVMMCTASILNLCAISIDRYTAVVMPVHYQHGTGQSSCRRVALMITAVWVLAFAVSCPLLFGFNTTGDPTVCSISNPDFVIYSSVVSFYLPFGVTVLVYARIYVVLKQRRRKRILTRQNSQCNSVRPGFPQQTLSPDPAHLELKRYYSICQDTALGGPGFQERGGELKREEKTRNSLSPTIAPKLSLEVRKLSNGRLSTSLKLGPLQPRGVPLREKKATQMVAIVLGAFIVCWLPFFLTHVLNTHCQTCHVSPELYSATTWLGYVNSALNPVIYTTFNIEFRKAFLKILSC", "description": "Binding affinity to human cloned dopamine D3 receptor"}, "[3]": {"target": "T2, 5-hydroxytryptamine receptor 1A (Homo sapiens, UniProt P08908)", "T2 sequence (P08908 whole entry)": "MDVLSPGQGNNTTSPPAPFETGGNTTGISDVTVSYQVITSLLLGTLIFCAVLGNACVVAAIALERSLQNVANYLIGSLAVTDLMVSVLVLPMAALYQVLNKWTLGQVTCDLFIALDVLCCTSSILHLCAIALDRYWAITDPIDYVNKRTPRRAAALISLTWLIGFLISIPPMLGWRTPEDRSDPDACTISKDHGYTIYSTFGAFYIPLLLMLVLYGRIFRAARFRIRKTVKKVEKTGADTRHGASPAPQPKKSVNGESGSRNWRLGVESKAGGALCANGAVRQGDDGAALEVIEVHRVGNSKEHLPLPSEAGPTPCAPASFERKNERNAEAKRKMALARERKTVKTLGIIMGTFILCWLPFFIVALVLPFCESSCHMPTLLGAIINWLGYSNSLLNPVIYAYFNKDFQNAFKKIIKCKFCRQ", "description": "Binding affinity to human cloned 5HT1A receptor"}, "[4]": {"target": "5-hydroxytryptamine receptor 2B (Homo sapiens, UniProt P41595)", "sequence (P41595 whole entry)": "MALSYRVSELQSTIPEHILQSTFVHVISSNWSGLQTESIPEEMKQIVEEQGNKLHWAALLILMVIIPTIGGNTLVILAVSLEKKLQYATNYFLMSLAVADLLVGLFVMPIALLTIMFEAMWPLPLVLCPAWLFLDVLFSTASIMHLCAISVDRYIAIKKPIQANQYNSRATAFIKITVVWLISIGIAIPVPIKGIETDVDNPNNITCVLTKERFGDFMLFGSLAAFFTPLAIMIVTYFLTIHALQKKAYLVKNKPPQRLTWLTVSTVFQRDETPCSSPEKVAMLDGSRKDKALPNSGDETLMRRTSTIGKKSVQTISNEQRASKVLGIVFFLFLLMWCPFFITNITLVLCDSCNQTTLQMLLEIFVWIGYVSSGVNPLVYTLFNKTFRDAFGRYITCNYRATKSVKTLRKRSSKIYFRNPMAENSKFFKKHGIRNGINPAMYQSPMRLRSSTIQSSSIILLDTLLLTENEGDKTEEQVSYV", "description": "Binding affinity to human cloned 5HT2B receptor"}, "[5]": {"organism": "Mus musculus", "assay": "animal or person", "format": "functional", "details": "Swiss Webster, 0.5 h", "description": "Blockade of apomorphine-induced climbing stereotypy in Swiss Webster mouse after 30 mins"}, "[6]": {"target": "Sodium-dependent dopamine transporter (Homo sapiens, UniProt Q01959)", "sequence (Q01959 whole entry)": "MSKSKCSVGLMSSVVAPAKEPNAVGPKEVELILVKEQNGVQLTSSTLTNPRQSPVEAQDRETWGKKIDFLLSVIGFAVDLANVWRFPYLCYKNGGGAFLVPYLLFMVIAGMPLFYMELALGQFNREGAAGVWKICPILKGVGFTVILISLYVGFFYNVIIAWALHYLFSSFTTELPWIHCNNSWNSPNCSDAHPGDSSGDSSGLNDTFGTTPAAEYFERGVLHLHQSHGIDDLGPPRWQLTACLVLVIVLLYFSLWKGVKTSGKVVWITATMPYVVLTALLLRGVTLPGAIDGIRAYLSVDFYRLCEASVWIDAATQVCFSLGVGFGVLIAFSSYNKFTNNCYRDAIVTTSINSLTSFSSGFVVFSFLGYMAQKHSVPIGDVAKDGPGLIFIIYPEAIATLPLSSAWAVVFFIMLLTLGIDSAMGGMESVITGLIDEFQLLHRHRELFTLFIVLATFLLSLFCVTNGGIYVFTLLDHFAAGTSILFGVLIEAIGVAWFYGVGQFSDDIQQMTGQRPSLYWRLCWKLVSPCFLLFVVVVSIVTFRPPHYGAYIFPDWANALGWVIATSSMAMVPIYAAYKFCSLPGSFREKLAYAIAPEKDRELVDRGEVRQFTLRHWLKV", "description": "Binding affinity to human DAT"}, "[7]": {"target": "5-hydroxytryptamine receptor 6 (Homo sapiens, UniProt P50406)", "sequence (P50406 whole entry)": "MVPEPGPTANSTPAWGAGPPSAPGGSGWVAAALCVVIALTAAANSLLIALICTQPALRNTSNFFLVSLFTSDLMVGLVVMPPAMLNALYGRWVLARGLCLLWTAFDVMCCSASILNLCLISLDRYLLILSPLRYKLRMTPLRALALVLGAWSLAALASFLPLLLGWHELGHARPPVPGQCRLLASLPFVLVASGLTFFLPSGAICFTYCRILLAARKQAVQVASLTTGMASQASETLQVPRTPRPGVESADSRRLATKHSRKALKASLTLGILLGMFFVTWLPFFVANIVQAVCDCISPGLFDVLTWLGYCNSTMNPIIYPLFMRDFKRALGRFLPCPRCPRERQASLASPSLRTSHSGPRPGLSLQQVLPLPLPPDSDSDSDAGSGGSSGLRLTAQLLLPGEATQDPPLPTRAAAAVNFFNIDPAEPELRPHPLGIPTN", "description": "Binding affinity to human cloned 5HT6 receptor"}, "[8]": {"target": "T3, Muscarinic acetylcholine receptor M1 (Homo sapiens, UniProt P11229)", "T3 sequence (P11229 whole entry)": "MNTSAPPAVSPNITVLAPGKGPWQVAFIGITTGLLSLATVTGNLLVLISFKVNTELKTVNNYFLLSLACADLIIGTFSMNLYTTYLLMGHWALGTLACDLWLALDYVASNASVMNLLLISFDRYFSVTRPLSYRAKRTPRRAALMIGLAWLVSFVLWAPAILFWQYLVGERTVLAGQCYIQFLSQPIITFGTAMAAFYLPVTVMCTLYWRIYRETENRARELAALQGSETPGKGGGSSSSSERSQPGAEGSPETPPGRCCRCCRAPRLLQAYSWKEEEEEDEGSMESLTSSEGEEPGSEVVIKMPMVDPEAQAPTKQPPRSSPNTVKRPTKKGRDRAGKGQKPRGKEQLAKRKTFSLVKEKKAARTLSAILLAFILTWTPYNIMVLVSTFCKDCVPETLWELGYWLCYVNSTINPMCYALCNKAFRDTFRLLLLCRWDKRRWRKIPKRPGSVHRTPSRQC", "description": "Binding affinity to human cloned muscarinic M1 receptor"}, "[9]": {"target": "T4, 5-hydroxytryptamine receptor 2C (Homo sapiens, UniProt P28335)", "T4 sequence (P28335 whole entry)": "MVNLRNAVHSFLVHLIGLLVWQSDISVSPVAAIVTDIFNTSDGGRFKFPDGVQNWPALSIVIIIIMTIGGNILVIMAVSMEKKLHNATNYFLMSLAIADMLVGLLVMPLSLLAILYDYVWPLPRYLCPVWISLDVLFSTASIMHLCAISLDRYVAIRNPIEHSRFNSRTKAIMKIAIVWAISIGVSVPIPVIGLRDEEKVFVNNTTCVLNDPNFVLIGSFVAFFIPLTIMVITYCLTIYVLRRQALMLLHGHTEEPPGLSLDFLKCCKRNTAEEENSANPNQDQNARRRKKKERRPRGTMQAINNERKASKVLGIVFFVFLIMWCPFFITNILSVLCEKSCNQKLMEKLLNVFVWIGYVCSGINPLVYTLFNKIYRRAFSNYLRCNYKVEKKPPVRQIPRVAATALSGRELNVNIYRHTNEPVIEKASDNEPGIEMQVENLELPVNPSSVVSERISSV", "description": "Binding affinity to human cloned 5HT2C receptor"}, "[10]": {"target": "5-hydroxytryptamine receptor 2A (Homo sapiens, UniProt P28223)", "sequence (P28223 whole entry)": "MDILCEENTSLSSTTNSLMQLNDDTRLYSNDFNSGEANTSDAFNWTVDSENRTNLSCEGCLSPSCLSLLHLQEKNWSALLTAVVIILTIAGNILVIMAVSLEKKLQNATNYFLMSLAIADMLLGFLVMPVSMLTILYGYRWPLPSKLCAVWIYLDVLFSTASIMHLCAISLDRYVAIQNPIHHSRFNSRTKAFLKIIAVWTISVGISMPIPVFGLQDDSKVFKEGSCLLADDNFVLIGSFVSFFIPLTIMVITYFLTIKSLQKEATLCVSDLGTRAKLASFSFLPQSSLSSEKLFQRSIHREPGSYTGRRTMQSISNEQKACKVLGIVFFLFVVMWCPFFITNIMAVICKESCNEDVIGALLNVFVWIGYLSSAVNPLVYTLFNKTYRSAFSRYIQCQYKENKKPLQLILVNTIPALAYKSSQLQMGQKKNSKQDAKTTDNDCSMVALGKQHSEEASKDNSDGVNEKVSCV", "description": "Binding affinity to human cloned 5HT2A receptor"}}, "data": [{"compound": "O=C(CCCN1CC2CC1CN2c1ccc(Cl)cc1)c1ccc(F)cc1", "note": "(stereo not given)", "values": [{"measurement": "Ki", "setting": "[1]", "value": 520, "unit": "nM"}, {"measurement": "Ki", "setting": "[2]", "value": 220, "unit": "nM"}]}, {"compound": "O=C(CCCN1CCC(O)(c2ccc(Cl)cc2)C1)c1ccc(F)cc1", "note": "(single isomer, unassigned; (+))", "values": [{"measurement": "Ki", "setting": "[3]", "value": 772, "unit": "nM"}]}, {"compound": "O=C(CCCN1CCCN(c2ccc(Cl)cc2)CC1)c1ccc(F)cc1", "values": [{"measurement": "Ki", "setting": "[4]", "value": 495, "unit": "nM"}, {"measurement": "ED50", "setting": "[5]", "value": 35.8, "unit": "µmol/kg"}, {"measurement": "Ki", "setting": "[6]", "value": 1150, "unit": "nM"}, {"measurement": "Ki", "setting": "[7]", "value": 296, "unit": "nM"}]}, {"compound": "O=C1Cc2cc(CCN3CCN(c4nsc5ccccc45)CC3)c(Cl)cc2N1", "note": "[ZIPRASIDONE]", "values": [{"measurement": "Ki", "setting": "[3]", "value": 2.5, "unit": "nM"}, {"measurement": "Ki", "setting": "[7]", "value": 76, "unit": "nM"}, {"measurement": "Ki", "setting": "[8]", "value": 5100, "unit": "nM"}]}, {"compound": "O=C(CCCN1C2CCC1CC(c1ccccc1)C2)c1ccc(F)cc1", "note": "(stereo not given)", "values": [{"measurement": "Ki", "setting": "[3]", "value": 414, "unit": "nM"}, {"measurement": "Ki", "setting": "[9]", "value": 1060, "unit": "nM"}, {"measurement": "Ki", "setting": "[10]", "value": 106, "unit": "nM"}]}, {"compound": "O=C(CCCN1C2CCC1CC(O)(c1ccccc1)C2)c1ccc(F)cc1", "note": "(stereo not given)", "values": [{"measurement": "Ki", "setting": "[3]", "value": 37.6, "unit": "nM"}, {"measurement": "Ki", "setting": "[9]", "value": "> 10000", "unit": "nM"}, {"measurement": "Ki", "setting": "[10]", "value": 12.3, "unit": "nM"}]}, {"compound": "O=C(CCCN1CCN(c2ccc(Cl)cc2)CC1)c1ccc(F)cc1", "values": [{"measurement": "Ki", "setting": "[3]", "value": 90.9, "unit": "nM"}, {"measurement": "Ki", "setting": "[9]", "value": 3550, "unit": "nM"}]}, {"compound": "O=C(CCCN1CC2CCC(C1)N2c1ccccc1)c1ccc(F)cc1", "values": [{"measurement": "Ki", "setting": "[1]", "value": 2100, "unit": "nM"}, {"measurement": "Ki", "setting": "[2]", "value": 600, "unit": "nM"}]}]}
